Assay results taken from ChEMBL document CHEMBL5518167, “Degradation of Polo-like Kinase 1 by the Novel Poly-Arginine N-Degron Pathway PROTAC Regulates Tumor Growth in Nonsmall Cell Lung Cancer” (J Med Chem, 2024).
The source made the active and inactive calls. The rule behind the calls is not given here. Where a SMILES comes first, the peptide text is derived from it. Bridges are numbered along the chain shown (N, C = ends). [ ]: non-standard residue; d: D form. His(π-(CH2)8Ph) = N[C@@H](Cc1cncn1CCCCCCCCc1ccccc1)C(=O)O; pT = C[C@@H](OP(=O)(O)O)[C@H](N)C(=O)O; Ahx = NCCCCCC(=O)O

What was measured:
[1] = test system: UBR/PLK1 (Homo sapiens); test: Protac activity at UBR/PLK1 in human A549 cells assessed as PLK1 degradation at 25 uM incubated for 2 to 24 hrs by immunoblotting analysis; details: time 2-24 hrs
[2] = Protac activity at UBR/PLK1 in human NCI-H1975 cells assessed as PLK1 degradation incubated for 24 hrs by immunoblotting analysis
[3] = test system: UBR/PLK1 (Homo sapiens); test: as above; details: dose 5-25 µM
[4] = Toxicity in nude mouse xenografted with human NCI-H1975 cells assessed as change in body weight at 10 mg/kg, iv administered for every 3 days; assay type: organism-based; details: in vivo, 72 h
[5] = test system: HeLa; test: Antitumor activity against human HeLa cells xenografted in nude mouse assessed as fold reduction in tumor size at 10 mg/kg, iv; assay type: functional
[6] = test system: HeLa; test: Cytotoxicity against human HeLa cells assessed as change in morphology at 18 uM incubated for 24 hrs by phase contrast microscopic assay; assay type: functional, cell-based
[7] = test system: HeLa; test: Induction of apoptosis in human HeLa cells at 18 uM incubated for 24 hrs by fluorescence microscopic analysis; assay type: functional, cell-based
[8] = test system: A549; test: Induction of cell cycle arrest in human A549 cells assessed as delay in S phase progression at 10 uM incubated for 24 hrs by PI staining based flow cytometry analysis; assay type: functional
[9] = test system: NCI-H1975; test: Induction of cell cycle arrest in human NCI-H1975 cells assessed as fold increase in S phase population at 10 uM incubated for 24 hrs by PI staining based flow cytometry analysis; assay type: functional
[10] = target: Serine/threonine-protein kinase PLK1 (Homo sapiens, UniProt P53350); test: Binding affinity to PLK1 PBD (unknown origin) by ITC method
Chain of Serine/threonine-protein kinase PLK1 (P53350 whole entry): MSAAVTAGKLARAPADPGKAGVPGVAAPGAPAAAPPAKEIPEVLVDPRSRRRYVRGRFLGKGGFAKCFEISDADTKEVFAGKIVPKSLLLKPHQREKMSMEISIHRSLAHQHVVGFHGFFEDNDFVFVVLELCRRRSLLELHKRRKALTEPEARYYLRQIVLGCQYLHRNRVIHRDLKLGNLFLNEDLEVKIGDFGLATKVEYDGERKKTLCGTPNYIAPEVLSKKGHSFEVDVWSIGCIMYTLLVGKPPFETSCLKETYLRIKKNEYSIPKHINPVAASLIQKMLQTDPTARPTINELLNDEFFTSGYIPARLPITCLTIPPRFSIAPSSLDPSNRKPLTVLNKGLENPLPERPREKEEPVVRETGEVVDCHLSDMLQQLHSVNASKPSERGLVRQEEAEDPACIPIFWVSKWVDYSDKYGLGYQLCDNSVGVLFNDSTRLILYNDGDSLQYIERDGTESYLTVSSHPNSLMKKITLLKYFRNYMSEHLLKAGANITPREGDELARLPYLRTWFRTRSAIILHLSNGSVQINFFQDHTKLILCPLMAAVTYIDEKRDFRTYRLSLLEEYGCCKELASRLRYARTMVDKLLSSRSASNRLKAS

[11] = test system: NCI-H1975; test: Induction of cell cycle arrest in human NCI-H1975 cells assessed as G2/M phase arrest at 10 uM incubated for 24 hrs by PI staining based flow cytometry analysis; assay type: functional
[12] = test system: NCI-H1975; test: Induction of cell cycle arrest in human NCI-H1975 cells assessed as delay in S phase progression at 10 uM incubated for 24 hrs by PI staining based flow cytometry analysis; assay type: functional
[13] = test system: NCI-H1975; test: Antitumor activity against human NCI-H1975 cells harboring L858R/T790M double mutant xenografted in nude mouse assessed as fold reduction in tumor growth at 10 mg/kg, iv administered for every 3 days in presence of 5 mg/kg osimertinib; assay type: functional
[14] = test system: A549; test: Cytotoxicity against human A549 cells assessed as change in morphology at 25 uM incubated for 24 hrs by phase contrast microscopic assay; assay type: functional, cell-based
[15] = test system: HeLa; test: Induction of cell cycle arrest in human HeLa cells assessed as delay in S phase progression at 10 uM incubated for 24 hrs by PI staining based flow cytometry analysis; assay type: functional
[16] = test system: UBR/PLK1 (Homo sapiens); test: Protac activity at UBR/PLK1 in human PC-9 cells assessed as PLK1 degradation at 10 uM incubated for 2 to 24 hrs by immunoblotting analysis; details: time 2-24 hrs
[17] = test system: PC-9; test: Induction of apoptosis in human PC-9 cells at 25 uM incubated for 24 hrs by fluorescence microscopic analysis; assay type: functional, cell-based
[18] = test system: PC-9; test: Cytotoxicity against human PC-9 cells assessed as change in morphology at 25 uM incubated for 24 hrs by phase contrast microscopic assay; assay type: functional, cell-based
[19] = test system: HeLa; test: Induction of cell cycle arrest in human HeLa cells assessed as G2/M phase arrest at 10 uM incubated for 24 hrs by PI staining based flow cytometry analysis; assay type: functional
[20] = test system: PC-9; test: Antitumor activity against human PC-9 cells xenografted in nude mouse assessed as fold reduction in tumor size at 10 mg/kg, iv; assay type: functional
[21] = test system: NCI-H1975; test: Antitumor activity against human NCI-H1975 cells harboring L858R/T790M double mutant xenografted in nude mouse assessed as fold reduction in tumor size at 10 mg/kg, iv administered for every 3 days in presence of 5 mg/kg osimertinib; assay type: functional
[22] = In vivo induction of PLK1 degradation in nude mouse xenografted with human NCI-H1975 cells assessed as reduction in PLK1 protein expression at 10 mg/kg, iv administered for every 3 days by Western blotting analysis; assay type: functional; set-up: scale not given: the % may be the effect or the level left
[23] = test system: NCI-H1975; test: Cytotoxicity against human NCI-H1975 cells incubated for 24 hrs by MTT assay; assay type: functional, cell-based; details: NCI-H1975, 24 h
[24] = test system: HeLa; test: Cytotoxicity against human HeLa cells incubated for 24 hrs by MTT assay; assay type: functional, cell-based
[25] = test system: UBR/PLK1 (Homo sapiens); test: Protac activity at UBR/PLK1 in human HeLa cells assessed as PLK1 degradation at 4 uM preincubated for 24 hrs followed by compound washout and measured after 24 to 48 hrs by immunoblotting analysis
[26] = test system: HeLa; test: Induction of cell cycle arrest in human HeLa cells assessed as fold increase in S phase population at 10 uM incubated for 24 hrs by PI staining based flow cytometry analysis; assay type: functional

Activity [1]: Active
DC50 [2]: 12 µM
Activity [3]: Dose-Dependent Effect
Kd [10]: 3.48 µM
Activity [16]: Active
Activity [25]: Active
Compound: C[C@@H](OP(=O)(O)O)[C@@H]1NC(=O)[C@H](Cc2cncn2CCCCCCCCc2ccccc2)NC(=O)[C@@H](NC(=O)CCCCCNC(=O)[C@H](CCCNC(=N)N)NC(=O)[C@H](CCCNC(=N)N)NC(=O)[C@H](CCCNC(=N)N)NC(=O)[C@H](CCCNC(=N)N)NC(=O)[C@H](CCCNC(=N)N)NC(=O)[C@H](CCCNC(=N)N)NC(=O)[C@H](CCCNC(=N)N)NC(=O)[C@H](CCCNC(=N)N)NC(=O)[C@H](CCCNC(=N)N)NC(=O)[C@H](CCCNC(=N)N)NC(=O)[C@H](CCCNC(=N)N)NC(=O)[C@@H](N)CCCNC(=N)N)CCC(=O)NCCCC[C@@H](C(N)=O)NC1=O (H-RRRRRRRRRRRR[Ahx]E[His(π-(CH2)8Ph)][pT]K-NH2; lactam 14-17)
Activity [4]: Non-Toxic
fold change (FC) [5]: 3.4
Activity [6]: Active
Activity [7]: Active
Activity [8]: Active
Activity [9]: Active
Activity [11]: 11%
Activity [12]: Active
fold change (FC) [13]: ~7
Activity [14]: Active
Activity [15]: Active
Activity [17]: Active
Activity [18]: Active
Activity [19]: 21%
fold change (FC) [20]: 5.2
fold change (FC) [21]: 3.5
Activity [22]: >60%
IC50 [23]: 24.4 µM
IC50 [24]: 18 µM
Activity [26]: Active
